# Experimental data: patent publication US4990500A, “Oxirane pseudooligosaccharides, a process for their preparation, their use and pharmaceutical preparations” (Hoechst Aktiengesellschaft, priority 1986, dated 1991)
# Structures can show the parent of a compound that is named as a salt.
# What was measured:
# [1] = molecular target: T1, saccharase (disaccharidases from the small intestine mucosa) (Homo sapiens, UniProt P14410); test: Saccharase test (inhibition of saccharase, hexokinase/glucose-6-phosphate dehydrogenase method); format: biochemical; settings: for specific activity, saccharase inhibitor units (SIU) per mg: 1 SIU = amount inhibiting two saccharase units to 50%
# T1 construct: from tissue
# T1 sequence (P14410 whole entry): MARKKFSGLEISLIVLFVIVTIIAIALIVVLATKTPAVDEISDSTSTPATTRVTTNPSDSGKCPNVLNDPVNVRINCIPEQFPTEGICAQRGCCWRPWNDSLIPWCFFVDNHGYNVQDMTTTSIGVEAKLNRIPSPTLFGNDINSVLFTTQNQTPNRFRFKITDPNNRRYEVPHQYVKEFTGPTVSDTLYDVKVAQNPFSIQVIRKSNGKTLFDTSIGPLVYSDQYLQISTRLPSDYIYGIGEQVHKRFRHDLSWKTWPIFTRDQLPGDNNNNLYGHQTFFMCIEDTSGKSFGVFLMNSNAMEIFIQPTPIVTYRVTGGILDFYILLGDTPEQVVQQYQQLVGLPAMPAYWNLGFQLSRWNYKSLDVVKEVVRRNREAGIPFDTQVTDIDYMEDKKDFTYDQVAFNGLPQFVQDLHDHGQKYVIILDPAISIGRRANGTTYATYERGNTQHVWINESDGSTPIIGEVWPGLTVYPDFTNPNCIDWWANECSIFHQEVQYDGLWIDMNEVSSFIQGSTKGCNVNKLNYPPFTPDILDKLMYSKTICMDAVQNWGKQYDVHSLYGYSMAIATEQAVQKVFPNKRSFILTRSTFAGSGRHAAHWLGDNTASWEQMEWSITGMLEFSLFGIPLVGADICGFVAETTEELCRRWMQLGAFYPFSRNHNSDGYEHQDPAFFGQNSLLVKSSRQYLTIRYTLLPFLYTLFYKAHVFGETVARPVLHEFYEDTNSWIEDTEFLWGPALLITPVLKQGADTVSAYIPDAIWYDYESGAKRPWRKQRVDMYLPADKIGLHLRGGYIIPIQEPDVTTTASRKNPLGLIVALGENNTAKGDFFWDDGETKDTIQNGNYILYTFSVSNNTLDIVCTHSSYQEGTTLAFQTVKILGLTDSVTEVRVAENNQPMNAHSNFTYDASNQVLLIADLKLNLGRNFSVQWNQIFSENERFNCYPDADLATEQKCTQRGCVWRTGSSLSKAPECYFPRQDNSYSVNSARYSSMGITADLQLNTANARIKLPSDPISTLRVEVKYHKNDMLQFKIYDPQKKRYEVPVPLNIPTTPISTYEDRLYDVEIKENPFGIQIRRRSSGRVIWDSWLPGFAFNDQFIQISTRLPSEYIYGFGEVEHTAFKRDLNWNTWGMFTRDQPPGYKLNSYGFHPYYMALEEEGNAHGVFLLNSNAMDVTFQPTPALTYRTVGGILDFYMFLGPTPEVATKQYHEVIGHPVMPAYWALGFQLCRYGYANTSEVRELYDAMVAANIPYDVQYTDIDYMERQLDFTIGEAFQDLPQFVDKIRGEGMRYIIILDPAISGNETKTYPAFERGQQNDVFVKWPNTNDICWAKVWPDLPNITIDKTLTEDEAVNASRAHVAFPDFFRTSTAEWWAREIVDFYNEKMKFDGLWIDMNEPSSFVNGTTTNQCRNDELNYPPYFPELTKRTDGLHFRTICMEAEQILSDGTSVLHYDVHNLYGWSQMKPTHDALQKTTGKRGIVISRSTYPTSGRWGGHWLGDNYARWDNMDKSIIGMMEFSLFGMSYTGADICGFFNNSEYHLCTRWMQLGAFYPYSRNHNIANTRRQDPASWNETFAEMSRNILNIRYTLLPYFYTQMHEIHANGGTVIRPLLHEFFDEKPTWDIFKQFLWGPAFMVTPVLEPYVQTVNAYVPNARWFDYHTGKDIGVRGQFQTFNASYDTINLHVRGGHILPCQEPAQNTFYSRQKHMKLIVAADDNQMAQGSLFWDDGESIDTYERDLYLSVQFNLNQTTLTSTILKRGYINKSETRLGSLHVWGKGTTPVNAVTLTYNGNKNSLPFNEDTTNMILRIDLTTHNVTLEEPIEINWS
# Protocol: (§1) The specific activities are 4×10^4 α-amylase inhibitor units (AIU) per mg and 1×10^4 saccharase inhibitor unit (SIU) per mg respectively for W-46 H, and 1×10^4 AIU per mg and 3×10^4 SIU per mg respectively for the inhibitor W-46 P. The activities were determined in the following tests:
# One saccharase inhibitor unit (SIU) is defined as the amount of inhibitor which is capable of inhibiting to 50% two saccharase units (SU) under the test conditions. According to international agreement, one SU is the amount of enzyme which cleaves 1 μequivalent of glycoside bonds in saccharose in one minute. The μgram-equivalents of cleaved glucoside bonds are determined photometrically using the hexokinase/glucose-6-phosphate dehydrogenase method as 2 μgram equivalents. The data are calculated as μmoles of hexoses, determined with reference to a glucose calibration curve.
# The tests were carried out according to H. U. Bergmeyer, described in "Methods of Enzymatic Analysis", 3rd edition, Verlag Chemie, Weinheim, 1984, pages 96-103.
# [2] = molecular target: T2, α-Amylase from the pig pancreas (Sus scrofa, UniProt P00690); test: Amylase test (inhibition of α-amylase, soluble starch according to Zulkowski, dinitrosalicylic acid); format: biochemical; settings: for specific activity, α-amylase inhibitor units (AIU) per mg: 1 AIU = amount inhibiting two amylase units to 50%, 37° C., pH 6.9
# T2 construct: from tissue; host or cells: pig pancreas
# T2 sequence (P00690 16-511): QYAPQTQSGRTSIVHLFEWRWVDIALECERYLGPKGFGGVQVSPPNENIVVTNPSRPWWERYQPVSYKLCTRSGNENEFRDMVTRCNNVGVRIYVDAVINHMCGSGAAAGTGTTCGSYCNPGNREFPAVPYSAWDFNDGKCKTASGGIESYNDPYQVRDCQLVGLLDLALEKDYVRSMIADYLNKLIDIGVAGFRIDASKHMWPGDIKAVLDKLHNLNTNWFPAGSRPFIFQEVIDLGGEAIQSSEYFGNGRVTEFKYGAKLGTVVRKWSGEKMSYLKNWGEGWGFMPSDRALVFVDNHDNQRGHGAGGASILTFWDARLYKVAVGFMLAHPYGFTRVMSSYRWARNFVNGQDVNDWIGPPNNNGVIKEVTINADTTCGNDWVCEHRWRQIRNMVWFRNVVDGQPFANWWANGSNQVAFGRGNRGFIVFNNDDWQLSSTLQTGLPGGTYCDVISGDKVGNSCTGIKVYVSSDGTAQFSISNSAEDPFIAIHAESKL
# Protocol: as §1
# An amylase inhibitor unit (AIU) is defined as the amount of inhibitor which is capable of inhibiting two amylase units (AU) to 50% under the test conditions. According to international agreement, one amylase unit is the amount enzyme which cleaves 1 μequivalent of glucoside bonds in the starch in one minute. The μgram-equivalents of cleaved glucoside bonds are determined photometrically using dinitrosalicylic acid as the μgram-equivalents of reducing sugars. The data are calculated as μmoles of maltose, determined with reference to a maltose calibration line.
# The tests are carried out as follows:
# α-Amylase from the pig pancreas and the solutions to be tested are preincubated together at 37° C. for 10-20 minutes in 1.0 ml of 20 mM phosphate buffer, pH 6.9+10 mM of NaCl. The enzymatic reaction is initiated according to Zulkowski by adding 1.0 ml of soluble starch (0.25% in the buffer specified). After exactly 10 minutes, the reaction is terminated using 2.0 ml of dinitrosalicylic acid coloring reagent (according to Boehringer Mannheim: BiochemicaInformation II) and the mixture is heated for 5 minutes in a boiling water bath to develop the color. After cooling, the extinction is measured at 546 nm against the blank reagent. 50% inhibition is determined graphically compared to the uninhibited enzyme reaction by means of the probability plot by using various amounts of inhibitor.
# experimental animals = test: Oral administration of high doses to experimental animals (symptoms); format: in vivo; settings: even high doses
# [3] = tested on: blood glucose concentration of starch-fed rats; test: Action on the blood glucose concentration of starch-fed rats; format: in vivo, male Wistar rats; settings: for Blood glucose: 2 g/kg starch, mean ± SEM, n = 7
# Text: (§2) In order to test the pharmacological action of the α-glucosidase inhibitors, unfed, male Wistar rats weighing between 200 and 250 g were given orally an inhibitor W-46 H or W-46 P according to the invention together with 2 g of starch or sucrose per kg of body weight as a suspension in ®Tylose (methylhydroxyethylcellulose).
# (§3) In these investigations, the values collated in Tables 1 (action on the blood glucose concentration of starch-fed rats) and 2 (action on the blood glucose concentration of sucrose-fed rats) were determined for inhibitor W-46 H.
# (§4) A limiting value of 0.27 mg/kg of rat is calculated from the values given in Table 1 and a limiting value of 1.29 mg/kg of rat from the values given in Table 2 (the limiting value of the active ingredient is taken to mean the amount per kg of experimental animal at whose administration a clear action can still be seen after one hour).
# [4] = tested on: blood glucose concentration of sucrose-fed rats; test: Action on the blood glucose concentration of sucrose-fed rats; format: in vivo, male Wistar rats; settings: for Blood glucose: 2 g/kg sucrose, mean ± SEM, n = 7
# Text: as §2, §3, §4
smiles,measurement,setting,value
CC1OC(OC2C(CO)OC(O)C(O)C2O)C(O)C(O)C1NC1C(O)C(O)C(OC2OC(CO)C(OC3OC(C)C(NC4C(O)C(O)C(O)C5(CO)OC45)C(O)C3O)C(O)C2O)C2(CO)OC12 (centres unmarked) [W-46 H chloride],"specific activity, saccharase inhibitor units (SIU) per mg",[1],1×10^4 SIU/mg
same,"specific activity, α-amylase inhibitor units (AIU) per mg",[2],3.9×10^4 AIU/mg
CC1OC(OC2C(CO)OC(O)C(O)C2O)C(O)C(O)C1NC1C(O)C(O)C(OC2OC(CO)C(OC3OC(C)C(NC4C(O)C(O)C(O)C5(CO)OC45)C(O)C3O)C(O)C2O)C2(CO)OC12 (centres unmarked) [W-46 H glucuronate],"specific activity, saccharase inhibitor units (SIU) per mg",[1],9×10^3 SIU/mg
same,"specific activity, α-amylase inhibitor units (AIU) per mg",[2],3.6×10^4 AIU/mg
CC1OC(OC2C(CO)OC(O)C(O)C2O)C(O)C(O)C1NC1C(O)C(O)C(OC2OC(CO)C(OC3OC(C)C(NC4C(O)C(O)C(O)C5(CO)OC45)C(O)C3O)C(O)C2O)C2(CO)OC12 (centres unmarked) [W-46 H sulfate],"specific activity, saccharase inhibitor units (SIU) per mg",[1],9.6×10^3 SIU/mg
same,specific activity (α-amylase inhibitor units),"[2]; sulfate, printed without per mg",3.8×10^4 AIU
CC1OC(OC2C(CO)OC(O)C(O)C2O)C(O)C(O)C1NC1C(O)C(O)C(OC2OC(CO)C(OC3OC(C)C(NC4C(O)C(O)C(O)C5(CO)OC45)C(O)C3O)C(O)C2O)C2(CO)OC12 (centres unmarked) [W-46 H],"inhibition of the disaccharidases from the small intestine mucosa, in particular the saccharase (in words)",[1],strongly inhibit
same,"specific activity, saccharase inhibitor units (SIU) per mg",[1],1×10^4 SIU/mg
same,"specific activity, saccharase inhibitor units (SIU) per mg",[1]; listed as W-46 H (free base),1×10^4 SIU/mg
same,striking symptoms after oral administration,experimental animals,not possible to detect striking symptoms
same,inhibition of the α-amylase from the pancreas (in words),[2],strongly inhibit
same,"specific activity, α-amylase inhibitor units (AIU) per mg",[2],4×10^4 AIU/mg
same,"specific activity, α-amylase inhibitor units (AIU) per mg",[2]; listed as W-46 H (free base),4×10^4 AIU/mg
same,minimal effective dose,"[3]; Rattus norvegicus, po, 1 h, starch-fed rats, p.o., calculated from Table 1, read-out: limiting value (amount per kg at whose administration a clear action can still be seen after one hour)",0.27 mg/kg
same,Blood glucose,"[3]; p.o. dose 0.3 mg/kg, 0 hours",3.77 ± 0.09 mmol/L
same,Blood glucose,"[3]; p.o. dose 0.3 mg/kg, 0.5 hours",5.53 ± 0.17 mmol/L
same,Blood glucose,"[3]; p.o. dose 0.3 mg/kg, 1 hour",5.59 ± 0.06 mmol/L
same,Blood glucose,"[3]; p.o. dose 0.3 mg/kg, 2 hours",5.67 ± 0.13 mmol/L
same,Blood glucose,"[3]; p.o. dose 0.3 mg/kg, 3 hours",4.86 ± 0.18 mmol/L
same,Blood glucose,"[3]; p.o. dose 0.3 mg/kg, 5 hours",4.39 ± 0.13 mmol/L
same,Blood glucose,"[3]; p.o. dose 1.0 mg/kg, 0 hours",3.93 ± 0.10 mmol/L
same,Blood glucose,"[3]; p.o. dose 1.0 mg/kg, 0.5 hours",5.04 ± 0.08 mmol/L
same,Blood glucose,"[3]; p.o. dose 1.0 mg/kg, 1 hour",5.07 ± 0.09 mmol/L
same,Blood glucose,"[3]; p.o. dose 1.0 mg/kg, 2 hours",4.99 ± 0.14 mmol/L
same,Blood glucose,"[3]; p.o. dose 1.0 mg/kg, 3 hours",4.57 ± 0.10 mmol/L
same,Blood glucose,"[3]; p.o. dose 1.0 mg/kg, 5 hours",4.13 ± 0.08 mmol/L
same,minimal effective dose,"[4]; Rattus norvegicus, po, 1 h, sucrose-fed rats, p.o., calculated from Table 2, read-out: limiting value (amount per kg at whose administration a clear action can still be seen after one hour)",1.29 mg/kg
same,Blood glucose,"[4]; p.o. dose 1 mg/kg, 0 minutes",3.99 ± 0.10 mmol/1
same,Blood glucose,"[4]; p.o. dose 1 mg/kg, 15 minutes",6.07 ± 0.28 mmol/1
same,Blood glucose,"[4]; p.o. dose 1 mg/kg, 30 minutes",6.01 ± 0.22 mmol/1
same,Blood glucose,"[4]; p.o. dose 1 mg/kg, 60 minutes",6.34 ± 0.14 mmol/1
same,Blood glucose,"[4]; p.o. dose 1 mg/kg, 120 minutes",5.45 ± 0.13 mmol/1
same,Blood glucose,"[4]; p.o. dose 1 mg/kg, 240 minutes",4.57 ± 0.07 mmol/1
same,Blood glucose,"[4]; p.o. dose 3 mg/kg, 0 minutes",3.94 ± 0.14 mmol/1
same,Blood glucose,"[4]; p.o. dose 3 mg/kg, 15 minutes",5.71 ± 0.23 mmol/1
same,Blood glucose,"[4]; p.o. dose 3 mg/kg, 30 minutes",5.53 ± 0.19 mmol/1
same,Blood glucose,"[4]; p.o. dose 3 mg/kg, 60 minutes",5.47 ± 0.15 mmol/1
same,Blood glucose,"[4]; p.o. dose 3 mg/kg, 120 minutes",5.20 ± 0.16 mmol/1
same,Blood glucose,"[4]; p.o. dose 3 mg/kg, 240 minutes",4.83 ± 0.15 mmol/1
same,Blood glucose,"[4]; p.o. dose 10 mg/kg, 0 minutes",4.01 ± 0.15 mmol/1
same,Blood glucose,"[4]; p.o. dose 10 mg/kg, 15 minutes",5.06 ± 0.20 mmol/1
same,Blood glucose,"[4]; p.o. dose 10 mg/kg, 30 minutes",5.11 ± 0.10 mmol/1
same,Blood glucose,"[4]; p.o. dose 10 mg/kg, 60 minutes",4.82 ± 0.09 mmol/1
same,Blood glucose,"[4]; p.o. dose 10 mg/kg, 120 minutes",4.50 ± 0.11 mmol/1
same,Blood glucose,"[4]; p.o. dose 10 mg/kg, 240 minutes",4.29 ± 0.22 mmol/1
CC1OC(O)C(O)C(O)C1NC1C(O)C(O)C(OC2OC(CO)C(OC3OC(C)C(NC4C(O)C(O)C(O)C5(CO)OC45)C(O)C3O)C(O)C2O)C2(CO)OC12 (centres unmarked) [W-46 P],"inhibition of the disaccharidases from the small intestine mucosa, in particular the saccharase (in words)",[1],strongly inhibit
same,"specific activity, saccharase inhibitor units (SIU) per mg",[1],3×10^4 SIU/mg
same,striking symptoms after oral administration,experimental animals,not possible to detect striking symptoms
same,inhibition of the α-amylase from the pancreas (in words),[2],strongly inhibit
same,"specific activity, α-amylase inhibitor units (AIU) per mg",[2],1×10^4 AIU/mg
